Values quoted from earlier work, collected in patent US7700579B2, “Process for the preparation of piroxicam: b-cyclodextrin inclusion compounds” (Chiesi Farmaceutici S.p.A., priority 2002, dated 2010).

Conditions: pH 5, 37° C.

## CN1C(C(=O)Nc2ccccn2)=C(O)c2ccccc2S1(=O)=O [Piroxicam]
  solubility in water: 0.003%
